Reference: ChEMBL document CHEMBL3580565, “Synthesis and Biological Evaluation of Cyclopentaquinoline Derivatives as Nonsteroidal Glucocorticoid Receptor Antagonists” (J Med Chem, 2015)

Assays:
[1] = molecular target: T1, Mineralocorticoid receptor (Homo sapiens, UniProt P08235); assay: Displacement of [3H]-aldosterone from cytosolic fraction of human recombinant mineralocorticoid receptor by scintillation counting analysis
T1 sequence (P08235 whole entry): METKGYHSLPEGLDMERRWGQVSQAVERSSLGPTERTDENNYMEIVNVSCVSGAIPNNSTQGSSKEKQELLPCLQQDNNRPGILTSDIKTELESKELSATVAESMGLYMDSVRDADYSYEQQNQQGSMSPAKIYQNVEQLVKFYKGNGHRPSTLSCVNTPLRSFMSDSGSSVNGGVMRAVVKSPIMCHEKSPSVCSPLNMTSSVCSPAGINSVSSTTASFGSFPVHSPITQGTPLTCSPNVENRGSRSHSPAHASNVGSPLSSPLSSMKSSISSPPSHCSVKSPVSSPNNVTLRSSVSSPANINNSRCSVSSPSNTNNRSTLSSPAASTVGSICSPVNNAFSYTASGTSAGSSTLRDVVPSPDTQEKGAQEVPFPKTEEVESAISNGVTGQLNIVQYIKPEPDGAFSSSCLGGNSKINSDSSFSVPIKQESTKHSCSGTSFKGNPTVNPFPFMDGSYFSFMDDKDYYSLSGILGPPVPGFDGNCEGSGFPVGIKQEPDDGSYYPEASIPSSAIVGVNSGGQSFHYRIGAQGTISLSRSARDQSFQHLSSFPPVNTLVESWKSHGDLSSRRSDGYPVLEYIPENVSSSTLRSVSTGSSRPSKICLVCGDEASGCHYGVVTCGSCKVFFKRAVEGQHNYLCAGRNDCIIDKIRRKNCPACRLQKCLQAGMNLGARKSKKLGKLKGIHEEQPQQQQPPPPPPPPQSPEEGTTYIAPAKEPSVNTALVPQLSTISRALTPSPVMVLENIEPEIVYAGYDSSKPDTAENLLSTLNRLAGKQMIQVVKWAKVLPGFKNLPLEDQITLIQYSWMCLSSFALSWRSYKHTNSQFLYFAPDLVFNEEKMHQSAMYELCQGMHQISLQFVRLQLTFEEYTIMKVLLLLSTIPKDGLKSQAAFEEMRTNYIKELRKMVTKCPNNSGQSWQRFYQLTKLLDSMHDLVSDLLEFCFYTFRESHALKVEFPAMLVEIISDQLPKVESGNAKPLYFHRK

[2] = molecular target: T2, Glucocorticoid receptor (Homo sapiens, UniProt P04150); assay: Antagonist activity at human glucocorticoid receptor transfected in CHOK1 cells assessed as inhibition of dexamethasone-induced receptor transcriptional activity after 6 hrs by luciferase reporter gene assay; type: cell-based, CHO-K1
T2 sequence (P04150 whole entry): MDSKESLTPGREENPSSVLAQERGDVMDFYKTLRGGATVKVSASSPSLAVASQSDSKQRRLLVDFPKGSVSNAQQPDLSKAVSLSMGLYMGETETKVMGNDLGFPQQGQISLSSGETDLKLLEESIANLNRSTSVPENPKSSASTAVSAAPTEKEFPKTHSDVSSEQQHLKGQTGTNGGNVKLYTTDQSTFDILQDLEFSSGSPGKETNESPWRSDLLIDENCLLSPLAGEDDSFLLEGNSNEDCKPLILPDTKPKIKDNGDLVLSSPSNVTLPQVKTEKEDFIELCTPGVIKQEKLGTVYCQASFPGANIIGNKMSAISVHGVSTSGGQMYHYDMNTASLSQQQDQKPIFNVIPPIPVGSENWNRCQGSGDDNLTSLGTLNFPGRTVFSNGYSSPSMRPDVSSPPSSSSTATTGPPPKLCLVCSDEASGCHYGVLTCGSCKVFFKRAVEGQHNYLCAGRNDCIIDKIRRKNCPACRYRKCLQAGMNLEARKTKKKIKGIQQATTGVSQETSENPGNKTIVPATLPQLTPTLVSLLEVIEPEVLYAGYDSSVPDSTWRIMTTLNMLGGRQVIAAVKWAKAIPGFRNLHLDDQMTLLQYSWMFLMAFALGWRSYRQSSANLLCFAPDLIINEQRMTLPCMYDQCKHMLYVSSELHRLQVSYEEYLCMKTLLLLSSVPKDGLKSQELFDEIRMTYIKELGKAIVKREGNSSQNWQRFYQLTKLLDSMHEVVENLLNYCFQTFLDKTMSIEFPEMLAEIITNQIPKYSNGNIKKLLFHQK

[3] = molecular target: T2, Glucocorticoid receptor; assay: Displacement of [3H]-dexamethasone from cytosolic fraction of human recombinant glucocorticoid receptor by scintillation counting analysis
[4] = molecular target: T3, Progesterone receptor (Homo sapiens, UniProt P06401); assay: Displacement of [3H]-progesterone from cytosolic fraction of human recombinant progesterone-B receptor by scintillation counting analysis
T3 sequence (P06401 whole entry): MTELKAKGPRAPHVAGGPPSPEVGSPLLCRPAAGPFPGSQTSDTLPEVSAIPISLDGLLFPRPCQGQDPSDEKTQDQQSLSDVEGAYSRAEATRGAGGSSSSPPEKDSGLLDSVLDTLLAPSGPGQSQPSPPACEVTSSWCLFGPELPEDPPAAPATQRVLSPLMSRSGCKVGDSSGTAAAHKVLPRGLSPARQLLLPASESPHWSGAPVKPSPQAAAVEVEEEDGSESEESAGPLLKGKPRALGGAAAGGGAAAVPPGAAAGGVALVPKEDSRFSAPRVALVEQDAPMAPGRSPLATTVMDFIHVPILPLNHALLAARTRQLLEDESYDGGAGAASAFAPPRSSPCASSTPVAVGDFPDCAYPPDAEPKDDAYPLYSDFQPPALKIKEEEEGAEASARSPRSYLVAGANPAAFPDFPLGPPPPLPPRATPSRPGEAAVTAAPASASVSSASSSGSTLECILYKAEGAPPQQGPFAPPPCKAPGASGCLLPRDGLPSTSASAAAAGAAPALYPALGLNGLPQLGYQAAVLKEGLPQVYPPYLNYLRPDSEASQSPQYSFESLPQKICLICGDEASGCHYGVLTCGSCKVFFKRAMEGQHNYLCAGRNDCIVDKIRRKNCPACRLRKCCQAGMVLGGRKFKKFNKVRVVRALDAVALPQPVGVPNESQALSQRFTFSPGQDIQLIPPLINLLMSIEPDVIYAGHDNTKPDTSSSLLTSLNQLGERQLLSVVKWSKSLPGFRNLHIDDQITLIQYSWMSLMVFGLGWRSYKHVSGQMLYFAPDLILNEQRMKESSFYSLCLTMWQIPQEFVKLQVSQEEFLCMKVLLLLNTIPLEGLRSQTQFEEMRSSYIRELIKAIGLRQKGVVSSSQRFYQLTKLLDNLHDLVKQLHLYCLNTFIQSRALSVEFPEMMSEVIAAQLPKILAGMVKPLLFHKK

[5] = tested on: Rattus norvegicus; assay: Antidepressant-like activity in Wistar rat assessed as decrease in immobility time at 30 mg/kg, po administered at 1, 5, 23.5 hrs prior to testing measured for 5 mins by forced swimming test relative to vehicle-treated control; type: functional; set-up: scale not given: the % may be the effect or the level left
[6] = tested on: Rattus norvegicus; assay: Antidepressant-like activity in Wistar rat assessed as decrease in immobility time at 10 mg/kg, po administered at 1, 5, 23.5 hrs prior to testing measured for 5 mins by forced swimming test relative to vehicle-treated control; type: functional; set-up: scale not given: the % may be the effect or the level left
[7] = tested on: Rattus norvegicus; assay: Antidepressant-like activity in Wistar rat assessed as immobility time at 10 mg/kg, po administered at 1, 5, 23.5 hrs prior to testing measured for 5 mins by forced swimming test (reference value: 211.3 to 232.2 secs); type: functional
[8] = tested on: Rattus norvegicus; assay: Antidepressant-like activity in Wistar rat assessed as immobility time at 30 mg/kg, po administered at 1, 5, 23.5 hrs prior to testing measured for 5 mins by forced swimming test (reference value: 211.3 to 232.2 secs); type: functional

| SMILES | IC50 [2] [nM] | Ki [3] [nM] | Ki [4] [nM] | other results |
| --- | --- | --- | --- | --- |
| Cc1noc(C)c1-c1cc2c(cc1Cl)NC(C)(C)C(=O)C2(C)C | < 30 | 151 | 403 | Ki [1]: > 3000 nM |
| COc1cc2c(cc1-c1c(C)noc1C)C(C)(C)C(=O)C(C)(C)N2 |  | 146 |  |  |
| Cc1noc(C)c1-c1cc2c(c3c1OCO3)NC(C)(C)C(=O)C2(C)C | 77 |  | 2270 | Ki [1]: > 3000 nM |
| Cc1cc(-c2cc3c(c4c2CCC4)NC(C)(C)C(=O)C3(C)C)n(C)n1 |  | > 384 |  |  |
| Cc1cn(C)c(-c2cc3c(c4c2CCC4)NC(C)(C)C(=O)C3(C)C)n1 |  | > 384 |  |  |
| CC1(C)Nc2c(cc(-c3cccc4nccn34)c3c2CCC3)C(C)(C)C1=O | 21 |  |  |  |
| CC1(C)Nc2c(cc(-c3cccc4nncn34)c3c2CCC3)C(C)(C)C1=O | 91 |  |  |  |
| CC1(C)Nc2c(cc(-c3cccn4cnnc34)c3c2CCC3)C(C)(C)C1=O |  | > 384 |  |  |
| CC1(C)Nc2c(cc(-c3ccnc4ccccc34)c3c2CCC3)C(C)(C)C1=O |  | 151 |  |  |
| CC1(C)Nc2c(cc(-c3ccnc4ncccc34)c3c2CCC3)C(C)(C)C1=O | 53 |  |  |  |
| CC#C[C@]1(O)CC[C@H]2[C@@H]3CCC4=CC(=O)CCC4=C3[C@@H](c3ccc(N(C)C)cc3)C[C@@]21C [MIFEPRISTONE] |  |  |  | Activity [5]: 80.1%; Activity [6]: 88.5%; Time [7]: 187 s; Time [8]: 169.3 s |

More lines, in order of falling Ki [3], values ahead:

| IC50 [2] [nM] | Ki [3] [nM] | Ki [4] [nM] | SMILES | other results |
| --- | --- | --- | --- | --- |
| 167 | 106 |  | Cc1noc(C)c1-c1cc2c(c3c1CCCC3)NC(C)(C)C(=O)C2(C)C |  |
| 150 | 69 |  | Cc1ncn(C)c1-c1cc2c(c3c1CCC3)NC(C)(C)C(=O)C2(C)C |  |
| 93 | 46 | > 1250 | CC1(C)Nc2c(cc(-c3cncc4nccn34)c3c2CCC3)C(C)(C)C1=O | Ki [1]: > 3330 nM |
| 84 | 35 | 1190 | CC1(C)Nc2c(cc(-c3cccn4nccc34)c3c2CCC3)C(C)(C)C1=O |  |
| 128 | 28 | > 1250 | Cc1cnn(C)c1-c1cc2c(c3c1CCC3)NC(C)(C)C(=O)C2(C)C |  |
| 37 | 16 | 22 | Cc1noc(C)c1-c1ccc2c(c1)C(C)(C)C(=O)C(C)(C)N2 | Ki [1]: 337 nM |
